What all share (type): functional, cell-based
Assay [1] relates to MEXF514. As to the kind of experiment: In vitro inhibitory concentration of compound against human cancer MEXF 514 cell line was determined.
The test system of assay [2] is RXF 944. In words: In vitro inhibitory concentration of compound against human cancer RXF 944 cell line was determined.
The subject of assay [3] is MCF7. In words: In vitro inhibitory concentration of compound against human cancer MACL MCF-7 cell line was determined.

The structures appear in SMILES notation.

A word on the IC50: it is the concentration at which inhibition is half-maximal. High values mean weaker potency in that assay, low ones greater potency in that assay. As to `CC(=O)O[C@H]1C(=O)[C@@]2(C)[C@H]([C@H](OC(=O)c3ccccc3)[C@]3(O)C[C@H](OC(=O)[C@H](O)[C@@H](NC(=O)c4ccccc4)c4ccccc4)C(C)=C1C3(C)C)[C@]1(OC(C)=O)CO[C@@H]1C[C@@H]2O` [PACLITAXEL], the IC50 turned out to be 1030 nM in assay [1] and 50 nM in assay [2].
Regarding `CC(=O)O[C@H]1C(=O)[C@@]2(C)C([C@H](OC(=O)c3ccccc3)C3(O)C[C@H](OC(=O)[C@H](OC(=O)c4ccc(C(C)=O)cc4)[C@@H](NC(=O)c4ccccc4)c4ccccc4)C(C)=C1C3(C)C)[C@]1(OC(C)=O)COC1C[C@@H]2O` (stereo not given in full), the IC50 in assay [3] was 130 nM; in assay [1] it was 220 nM; in assay [2], 90 nM.
